Measurements taken from patent US12655106B2 (Eikonizo Therapeutics, Inc., priority 2021, dated 2026).
pIC50: −log10 of the molar value.

Legend:
[1] = target: T1, Full length Human HDAC6 (Homo sapiens, UniProt Q9UBN7); assay: Caliper endpoint assay for HDAC enzymatic activity (HDAC6); assay type: biochemical; details: for pIC50: in vitro enzymatic, Caliper endpoint assay, 30 min pre-incubation, 1 μM substrate peptide; for Selectivity (6 v 8): ratio of HDAC8 IC50/HDAC6 IC50
T1 construct: Full length Human HDAC6; FLAG (C); host or cells: baculovirus expression system
T1 sequence (Q9UBN7 1-1215): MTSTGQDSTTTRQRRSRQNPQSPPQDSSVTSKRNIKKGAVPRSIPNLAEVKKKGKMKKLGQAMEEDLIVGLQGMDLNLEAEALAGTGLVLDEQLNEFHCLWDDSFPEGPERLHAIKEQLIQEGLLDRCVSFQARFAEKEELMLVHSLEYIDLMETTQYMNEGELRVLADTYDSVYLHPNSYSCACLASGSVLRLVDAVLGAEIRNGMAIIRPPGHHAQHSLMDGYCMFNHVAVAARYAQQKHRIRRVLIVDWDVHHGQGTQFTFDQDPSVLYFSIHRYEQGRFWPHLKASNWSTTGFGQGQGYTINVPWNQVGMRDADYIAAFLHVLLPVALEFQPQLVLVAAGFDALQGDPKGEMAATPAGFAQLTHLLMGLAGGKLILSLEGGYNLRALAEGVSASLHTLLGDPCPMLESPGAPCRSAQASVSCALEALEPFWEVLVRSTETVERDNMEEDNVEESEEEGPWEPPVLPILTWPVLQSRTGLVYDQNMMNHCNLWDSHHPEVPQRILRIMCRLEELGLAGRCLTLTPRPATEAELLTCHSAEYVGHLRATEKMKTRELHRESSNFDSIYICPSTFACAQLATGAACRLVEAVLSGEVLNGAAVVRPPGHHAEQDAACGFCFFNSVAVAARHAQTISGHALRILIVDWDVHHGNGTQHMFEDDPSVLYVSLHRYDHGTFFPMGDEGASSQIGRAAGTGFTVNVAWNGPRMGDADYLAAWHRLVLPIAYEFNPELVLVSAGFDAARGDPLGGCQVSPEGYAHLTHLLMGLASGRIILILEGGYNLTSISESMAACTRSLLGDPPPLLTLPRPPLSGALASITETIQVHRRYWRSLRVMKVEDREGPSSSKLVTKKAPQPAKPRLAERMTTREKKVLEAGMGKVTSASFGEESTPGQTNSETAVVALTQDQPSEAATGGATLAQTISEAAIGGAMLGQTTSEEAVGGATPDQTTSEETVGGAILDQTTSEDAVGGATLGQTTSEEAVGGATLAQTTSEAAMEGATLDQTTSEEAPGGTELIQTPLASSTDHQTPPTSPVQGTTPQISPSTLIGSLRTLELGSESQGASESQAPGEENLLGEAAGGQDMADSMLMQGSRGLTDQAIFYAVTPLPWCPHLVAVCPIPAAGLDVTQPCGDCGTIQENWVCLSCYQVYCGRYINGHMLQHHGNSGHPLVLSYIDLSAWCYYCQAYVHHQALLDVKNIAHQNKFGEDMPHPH

[2] = target: T2, Full length Human HDAC8 (Homo sapiens, UniProt Q9BY41); assay: Caliper endpoint assay for HDAC enzymatic activity (HDAC8); assay type: biochemical; details: in vitro enzymatic, 30 min pre-incubation, 1 μM substrate peptide
T2 construct: Full length Human HDAC8; HIS (N); host or cells: baculovirus expression system
T2 sequence (Q9BY41 1-377): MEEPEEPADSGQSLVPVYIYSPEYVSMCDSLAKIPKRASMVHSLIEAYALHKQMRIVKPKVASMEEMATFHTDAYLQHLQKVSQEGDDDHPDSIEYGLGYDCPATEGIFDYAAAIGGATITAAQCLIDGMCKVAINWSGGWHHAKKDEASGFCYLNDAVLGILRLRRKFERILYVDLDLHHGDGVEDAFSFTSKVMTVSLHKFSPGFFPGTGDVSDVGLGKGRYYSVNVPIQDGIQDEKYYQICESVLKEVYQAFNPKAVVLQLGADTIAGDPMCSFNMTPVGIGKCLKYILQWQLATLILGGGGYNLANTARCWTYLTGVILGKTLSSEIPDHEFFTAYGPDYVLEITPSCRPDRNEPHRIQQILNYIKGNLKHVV

Row | pIC50 [1] | Selectivity (6 v 8) [1] | pIC50 [2] | Compound
1 | 7.00 to 9.00 | V (V: >1000) | 4.00 to 5.00 | CC(=O)N1CCCCC12CC(N1CCc3cc(C(=O)NO)cc(F)c3C1)C2 (stereo not drawn) [Compound 355, 2-(5-acetyl-5-azaspiro[3.5]nonan-2-yl)-8-fluoro-3,4-dihydro-1H-isoquinoline-6-carbohydroxamic acid]
2 | 4.00 to 5.00 | – | < 4.00 | O=C(NO)c1cc(F)c2c(c1)C[C@H]1COCCN1C2 (single isomer, unassigned) [Compound 130]
3 | 7.00 to 9.00 | – | 4.00 to 5.00 | O=C(NO)c1cc(F)c2c(c1)CCN(C[C@H]1CCC3(CCCCC3)C1)C2 (single isomer, unassigned) [Compound 108]
4 | 7.00 to 9.00 | – | 5.00 to 6.00 | O=C(NO)c1cc(F)c2c(c1)C[C@@H]1CC3(CCCCC3)CN1C2 (single isomer, unassigned) [Compound 136]
5 | 7.00 to 9.00 | IV (IV: >100-1000) | 4.00 to 5.00 | CN1CC[C@]2(CC[C@@H]2N2CCc3cc(C(=O)NO)cc(F)c3C2)C1 (single isomer, unassigned) [Compound 330]
6 | 7.00 to 9.00 | IV (IV: >100-1000) | 4.00 to 5.00 | O=C(NO)c1cc(F)c2c(c1)CCN([C@H]1C[C@]3(CCCCO3)C1)C2 (single isomer, unassigned) [Compound 339, 8-fluoro-2-(5-oxaspiro[3.5]nonan-2-yl)-3,4-dihydro-1H-isoquinoline-6-carbohydroxamic acid]
7 | 7.00 to 9.00 | IV (IV: >100-1000) | 4.00 to 5.00 | CN1C[C@]2(CN3CCc4cc(C(=O)NO)cc(F)c4C3)C[C@H]1CO2 [Compound 475, 8-fluoro-2-[[(1R,4S)-5-methyl-2-oxa-5-azabicyclo[2.2.1]heptan-1-yl]methyl]-3,4-dihydro-1H-isoquinoline-6-carbohydroxamic acid]
8 | 4.00 to 5.00 | – | < 4.00 | O=C(NO)c1cc(F)c2c(c1)C[C@@H]1COCCN1C2 (single isomer, unassigned) [Compound 129]
9 | 7.00 to 9.00 | V (V: >1000) | 4.00 to 5.00 | O=C(NO)c1cc(F)c2c(c1)CCN(CC1CC3(CCNCC3)C1)C2 [Compound 468, 2-(7-azaspiro[3.5]nonan-2-ylmethyl)-8-fluoro-3,4-dihydro-1H-isoquinoline-6-carbohydroxamic acid]
10 | 7.00 to 9.00 | IV (IV: >100-1000) | 4.00 to 5.00 | O=C(NO)c1cc(F)c2c(c1)CCN([C@H]1CCOC3(CCC3)C1)C2 (single isomer, unassigned) [Compound 445]
11 | 7.00 to 9.00 | IV (IV: >100-1000) | 5.00 to 6.00 | CC(=O)N1CC2(CCC2N2CCc3cc(C(=O)NO)cc(F)c3C2)C1 (stereo not drawn) [Compound 304, 2-(2-acetyl-2-azaspiro[3.3]heptan-7-yl)-8-fluoro-3,4-dihydro-1H-isoquinoline-6-carbohydroxamic acid]
12 | 7.00 to 9.00 | IV (IV: >100-1000) | 4.00 to 5.00 | CC(=O)N1CCC2(CCC2N2CCc3cc(C(=O)NO)cc(F)c3C2)CC1 (stereo not drawn) [Compound 360, 2-(7-acetyl-7-azaspiro[3.5]nonan-3-yl)-8-fluoro-3,4-dihydro-1H-isoquinoline-6-carbohydroxamic acid]
13 | 7.00 to 9.00 | IV (IV: >100-1000) | 4.00 to 5.00 | CC(=O)N1CCC2(CC1)CC(CN1CCc3cc(C(=O)NO)cc(F)c3C1)C2 [Compound 471, 2-[(7-acetyl-7-azaspiro[3.5]nonan-2-yl)methyl]-8-fluoro-3,4-dihydro-1H-isoquinoline-6-carbohydroxamic acid]

The next lines start with the molecule.

Row | Compound | pIC50 [1] | Selectivity (6 v 8) [1] | pIC50 [2]
14 | CC[C@@H]1Cc2c(F)cc(C(=O)NO)cc2CN1C[C@]12C[C@H](CO1)N(C)C2 (single isomer, unassigned) [Compound 554] | 7.00 to 9.00 | IV (IV: >100-1000) | 5.00 to 6.00
15 | O=C(NO)c1ccc2c(c1)CN1CCCC[C@@H]1C2 [Compound 143] | 6.00 to 7.00 | III (III: >10-100) | 5.00 to 6.00
16 | CC[C@@H]1Cc2c(F)cc(C(=O)NO)cc2CN1CC1COC1 (single isomer, unassigned) [Compound 217] | 7.00 to 9.00 | IV (IV: >100-1000) | 4.00 to 5.00
17 | CC[C@H]1Cc2c(F)cc(C(=O)NO)cc2CN1CC1CC2(CCCCC2)C1 (single isomer, unassigned) [Compound 522] | 7.00 to 9.00 | III (III: >10-100) | 6.00 to 7.00
18 | CC[C@H]1Cc2c(F)cc(C(=O)NO)cc2CN1C1CC2(CCCCC2)C1 (single isomer, unassigned) [Compound 233] | 7.00 to 9.00 | IV (IV: >100-1000) | 4.00 to 5.00
19 | O=C(NO)c1ccc2c(c1)CCN1CCC[C@@H]21 [Compound 149] | 6.00 to 7.00 | II (II: >1-10) | 5.00 to 6.00
20 | CC1(C)C[C@@H]2Cc3c(F)cc(C(=O)NO)cc3CN2C1 [Compound 127] | 7.00 to 9.00 | IV (IV: >100-1000) | 5.00 to 6.00
21 | CC[C@@H]1Cc2c(F)cc(C(=O)NO)cc2CN1C1COC1 (single isomer, unassigned) [Compound 600] | 7.00 to 9.00 | IV (IV: >100-1000) | 5.00 to 6.00
22 | CC[C@@H]1Cc2c(F)cc(C(=O)NO)cc2CN1C[C@@]12C[C@@H](CO1)N(C)C2 (single isomer, unassigned) [Compound 555] | < 4.00 | V (V: >1000) | < 4.00
23 | CC[C@H]1Cc2c(F)cc(C(=O)NO)cc2CN1C[C@@]12C[C@@H](CO1)N(C)C2 (single isomer, unassigned) [Compound 553] | 7.00 to 9.00 | IV (IV: >100-1000) | 4.00 to 5.00
24 | O=C(NO)c1ccc2c(c1)CCN1CCCC[C@@H]21 [Compound 89] | 5.00 to 6.00 | II (II: >1-10) | 5.00 to 6.00
25 | [2H]c1cc2c(cc1C(=O)NO)CCN(C1CC3(CCCCC3)C1)C2 [Compound 504, N-hydroxy-2-(spiro[3.5]nonan-2-yl)-1,2,3,4-tetrahydroisoquinoline-7-d-6-carboxamide] | 6.00 to 7.00 | IV (IV: >100-1000) | 4.00 to 5.00
26 | C[C@H]1CC[C@@H]2c3c(F)cc(C(=O)NO)cc3CCN21 (single isomer, unassigned) [Compound 159] | 6.00 to 7.00 | – | 5.00 to 6.00
27 | O=C(NO)c1cc(F)c2c(c1)CN(C[C@@H]1CCCCO1)CC2 (single isomer, unassigned) [Compound 214] | 7.00 to 9.00 | III (III: >10-100) | 5.00 to 6.00
28 | CC[C@H]1Cc2c(F)cc(C(=O)NO)cc2CN1C1CCCC1 (single isomer, unassigned) [Compound 581] | 6.00 to 7.00 | III (III: >10-100) | 4.00 to 5.00
29 | C[C@@H]1C[C@H]2c3c(F)cc(C(=O)NO)cc3CCN2C1 (single isomer, unassigned) [Compound 152] | 7.00 to 9.00 | – | 5.00 to 6.00
30 | CC[C@@H]1Cc2c(F)cc(C(=O)NO)cc2CN1C1CC2(C1)CN(C)C2 (single isomer, unassigned) [Compound 584] | 6.00 to 7.00 | IV (IV: >100-1000) | 4.00 to 5.00
